Assay results: patent US10087199B2, “Super-resolution imaging compositions and methods using same” (Yale University, priority 2014, dated 2018)

Legend:
[1] = test system: HeLa cells that stably expressed GalNAcT2-GFP (Golgi); test: Two-step Golgi labeling and colocalization with GalNAcT2-GFP by confocal microscopy; format: cell-based; conditions: 2 μM Cer-TCO then 2 μM SiR-Tz, or SiR-Tz only; Golgi area; confocal
Description: To evaluate whether the Golgi could be selectively imaged using Cer-SiR, HeLa cells that stably expressed a protein fusion composed of GFP and N-acetyl-galactosaminyltransferase 2 (GalNAcT2), a transmembrane protein that localizes to the Golgi with high specificity (Storrie, et al., 1998, J. Cell Biol. 143:1505-1521), were used. These cells were treated with 2 μM Cer-TCO (5 min), maintained at 19.5° C. for 60 min to localize the lipid to the Golgi, treated subsequently with 2 μM SiR-Tz (30 min), and visualized using confocal microscopy (FIG. 2A).
The GalNAcT2-GFP and Cer-SiR signals colocalized with a Pearson's coefficient of 0.50±0.02; the corresponding value for the signals from GalNAcT2-GFP and SiR-Tz was 0.08±0.01 (p<0.0001) (FIG. 10), supporting that Cer-TCO effectively localized to the Golgi and reacted efficiently with SiR-Tz.
Stably or transiently transfected HeLa cells were cultured on 35 mm glass bottom dishes (Mattek). To label with Cer-TCO/SiR-Tz, the cells were incubated in PBS containing 1% casein, 0.2% Pluronic F-127 and 2 or 5 μM TCO-Cer for 5 min at 37° C. After washing three times with DMEM ph(−), the cells were incubated for 1 h at 19.5° C. in DMEM ph(−). During this incubation the dish was sealed with parafilm to protect the cells from the used water bath. Subsequently, the cells were washed three times and PBS containing 1% casein and 2 or 1 μM SiR-Tz, respectively, was added to the dish. The dish was sealed with parafilm again and incubated for 30 min at 19.5° C. After washing three times with DMEM ph(−), the cells were observed under a confocal microscope. Fixed samples were prepared similarly with an additional treatment with 4% PFA for 10 min at room temperature after first temperature block. […]
The Pearson correlation between the SiR and the GFP signal within cells was determined using the correlation measurement tool in Volocity. […] For cells stably expressing GalNAcT2-GFP and treated with SiR-Tz and Cer-TCO 13 samples (cells) were analyzed and for cells only treated with SiR-Tz 8 samples were analyzed. […]

[2] = test system: HeLa cells; test: Cell viability / cell- and photo-toxicity under prolonged imaging; format: cell-based; conditions: at concentrations as high as 2 μM
Description: In the experiments described above, the cells were exposed to Cer-TCO/SiR-Tz for minutes, a relatively short time period. To evaluate whether this Golgi labeling strategy would result in cell- or photo-toxicity over prolonged periods (such as hours), HeLa cells were treated with varying concentrations of either Cer-TCO/SiR-Tz or BODIPY® FL C5-ceramide (BODIPY-Cer) (Marks, et al., 2008, Cell Biol. 130:819-832; Pagano, et al., 1991, J. Cell Biol. 113:1267-1279), a commercially available fluorescent dye that labels the Golgi. […]
Hela cells stably expressing GalNAcT2-GFP were cultured on 35 mm glass bottom dishes subsequently labeled with various concentrations of TCO-Cer (0, 1, 2, and 5 μM) and SiR-Tz (0, 1, and 2 μM) following the protocol described elsewhere herein. […] After equilibration for 30 min, phase contrast images were taken at an interval of 20 min and fluorescence images at an interval of 10 min over 400-750 min. […] The number of physically intact cells was counted at each time point. For each condition at least 110 cells were counted/observed in the initial images (n0 (0 μM TCO-Cer, 0 μM SiR-Tz)=123 cells, n0 (2 μM TCO-Cer, 2 μM SiR-Tz)=113 cells, n0 (1 μM TCO-Cer, 1 μM SiR-Tz)=130 cells, n0 (5 μM TCO-Cer, 1 μM SiR-Tz)=120 cells, n0 (5 μM BODIPY-Cer)=123 cells).

CCCCCCCCCCCCC/C=C/[C@@H](O)[C@H](CO)NC(=O)CCCCCNC(=O)OC1CCCC2=C(c3ccc(CNC(=O)c4ccc(C(=O)[O-])c(C5=C6C=CC(=[N+](C)C)C=C6[Si](C)(C)c6cc(N(C)C)ccc65)c4)cc3)NN=CC2CC1 (stereo partly drawn) [Cer-SiR, 4-((4-(7-(((6-(((2S,3R,E)-1,3-dihydroxyoctadec-4-en-2-yl)amino)-6-oxohexyl)carbamoyl)oxy)-2,4a,5,6,7,8,9,10-octahydrocycloocta[d]pyridazin-1-yl)benzyl)carbamoyl)-2-(7-(dimethylamino)-3-(dimethyliminio)-5,5-dimethyl-3,5-dihydrodibenzo[b,e]silin-10-yl)benzoate]
Pearson's coefficient of colocalization with GalNAcT2-GFP signal [1]: 0.50±0.02
Toxicity [2]: non-toxic
